Laboratory results as given in the supplement of paper PMC4862054.

Assays:
Conditions in all cases: incubation time: 72 h
[1] = tested on: BT-474; experiment: normalised response (% of control), CellTox Green; higher = less cell death (100 = DMSO, 0 = benzethonium chloride kill control)
Outline: (§1)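 Breast cancer cell lines in 20 µl suspension were added to 384-well plates containing compound at 5 concentrations, spaced in 10-fold steps across a 10,000-fold range chosen for each compound, and incubated for 72 h. CellTox Green fluorescence was read at 485/520 nm, followed by CellTiter-Glo luminescence after 10 min at room temperature. Signals on each plate were normalised so that 0.1 % DMSO equals 100 and a positive kill control equals 0. Every value in the table is the normalised signal at one concentration of the series.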

[2] = tested on: BT-549; experiment: as above
Outline: as §1

[3] = tested on: CAL-120; experiment: as above
Outline: as §1

[4] = tested on: CAL-148; experiment: as above
Outline: as §1

[5] = tested on: CAL-51; experiment: as above
Outline: as §1

[6] = tested on: CAL-85-1; experiment: as above
Outline: as §1

[7] = tested on: DU-4475; experiment: as above
Outline: as §1

[8] = tested on: HCC1143; experiment: as above
Outline: as §1

[9] = tested on: HCC1599; experiment: as above
Outline: as §1

[10] = tested on: HCC1937; experiment: as above
Outline: as §1

[11] = tested on: Hs578T; experiment: as above
Outline: as §1

[12] = tested on: MCF-10A; experiment: as above
Outline: as §1

[13] = tested on: MDA-MB-231; experiment: as above
Outline: as §1

[14] = tested on: MDA-MB-436; experiment: as above
Outline: as §1

[15] = tested on: MDA-MB-453; experiment: as above
Outline: as §1

[16] = tested on: MDA-MB-468; experiment: as above
Outline: as §1

[17] = tested on: MFM-223; experiment: as above
Outline: as §1

[18] = tested on: BT-474; experiment: normalised response (% of control), CellTiter-Glo; higher = more viable cells (100 = DMSO, 0 = benzethonium chloride kill control)
Outline: as §1

[19] = tested on: BT-549; experiment: as above
Outline: as §1

[20] = tested on: CAL-120; experiment: as above
Outline: as §1

[21] = tested on: CAL-148; experiment: as above
Outline: as §1

[22] = tested on: CAL-51; experiment: as above
Outline: as §1

[23] = tested on: CAL-85-1; experiment: as above
Outline: as §1

[24] = tested on: DU-4475; experiment: as above
Outline: as §1

[25] = tested on: HCC1143; experiment: as above
Outline: as §1

[26] = tested on: HCC1599; experiment: as above
Outline: as §1

[27] = tested on: HCC1937; experiment: as above
Outline: as §1

[28] = tested on: HDQ-P1; experiment: as above
Outline: as §1

[29] = tested on: Hs578T; experiment: as above
Outline: as §1

[30] = tested on: MCF-10A; experiment: as above
Outline: as §1

[31] = tested on: MDA-MB-231; experiment: as above
Outline: as §1

[32] = tested on: MDA-MB-436; experiment: as above
Outline: as §1

[33] = tested on: MDA-MB-453; experiment: as above
Outline: as §1

[34] = tested on: MDA-MB-468; experiment: as above
Outline: as §1

[35] = tested on: MFM-223; experiment: as above
Outline: as §1

[36] = tested on: SK-BR-3; experiment: as above
Outline: as §1

[37] = tested on: HDQ-P1; experiment: normalised response (% of control), CellTox Green; higher = less cell death (100 = DMSO, 0 = benzethonium chloride kill control)
Outline: as §1

SMILES | normalised response [1] | normalised response [2] | normalised response [3] | normalised response [4] | normalised response [5] | normalised response [6] | normalised response [7] | normalised response [8] | normalised response [9] | normalised response [10] | normalised response [11] | normalised response [12] | normalised response [13] | normalised response [14] | normalised response [15] | normalised response [16] | normalised response [17] | normalised response [18] | normalised response [19] | normalised response [20] | normalised response [21] | normalised response [22] | normalised response [23] | normalised response [24] | normalised response [25] | normalised response [26] | normalised response [27] | normalised response [28] | normalised response [29] | normalised response [30] | normalised response [31] | normalised response [32] | normalised response [33] | normalised response [34] | normalised response [35] | normalised response [36] | normalised response [37]
CCc1cncnc1N1CCN(Cc2nc3ccc(C(F)(F)F)cc3[nH]2)CC1 (1000 nM) | 102% | 109% | 98.6% | 100% | 97% | 106% | 104% | 79.2% | 97.5% | 111% | 100% | 111% | 98.9% | 84.2% | 94.2% | 114% | 101% | 96.7% | 83.6% | 98.1% | 103% | 67% | 97.7% | 93.4% | 102% | 98.8% | 91.1% | 103% | 98.5% | 103% | 99.4% | 106% | 94.8% | 90.3% | 106% | 112% | 
CC[C@@H]1C(=O)N(C)c2cnc(Nc3ccc(C(=O)NC4CCN(C)CC4)cc3OC)nc2N1C1CCCC1 [BI 2536] (100 nM) | 100% | 93% | 87.1% | 97.7% | 49.6% | 71.5% | 98.5% | 79.2% | 91.7% | 113% | 82% | 36.6% | 24.3% | 82.5% | 103% | 73.3% | 70.5% | 55.9% | 23.6% | 63.4% | 68.1% | 21.9% | 81.7% | 63.3% | 47.5% | 37.9% | 86.7% | 84% | 38.8% | 60.3% | 51% | 53.1% | 86.5% | 47.9% | 49.1% | 17.6% | 
O=C(O)CCCCC(CCSCc1ccccc1)SCc1ccccc1 (stereo unspecified) [CPI-613] (1000 nM) | 98.6% | 92.6% | 102% | 94.6% | 111% | 96.8% | 100% | 58.7% | 95.5% | 117% | 103% | 92.8% | 109% | 81.4% | 103% | 114% | 98.7% | 98.5% | 102% | 98.1% | 100% | 114% | 97.1% | 99.1% | 102% | 108% | 101% | 102% | 106% | 103% | 102% | 99.5% | 103% | 108% | 108% | 100% | 
COc1cc2c(Oc3ccc4[nH]c(C)cc4c3F)ncnc2cc1OCCCN1CCCC1 [Cediranib] (100 nM) | 104% | 126% | 96.8% | 106% | 109% | 91.2% | 98.4% | 112% | 102% | 123% | 97.6% | 98.1% | 113% | 90.2% | 105% | 98.6% | 84.1% | 104% | 108% | 103% | 103% | 107% | 100% | 97.3% | 97.3% | 98% | 98.1% | 102% | 104% | 95.4% | 103% | 106% | 102% | 111% | 97.9% | 103% | 
Cc1ccc(-c2cc(C(F)(F)F)nn2-c2ccc(S(N)(=O)=O)cc2)cc1 [Celecoxib] (1000 nM) | 101% | 115% | 101% | 104% | 117% | 104% | 101% | 104% | 99.1% | 111% |  | 81.4% | 106% | 105% | 105% | 121% | 96% | 100% | 107% | 98.1% | 91.3% | 118% | 93.3% | 94% | 99.9% | 99.6% | 109% | 100% | 107% | 112% | 96.4% | 101% | 99% | 99.8% | 100% | 101% | 112%
Nc1ncn([C@H]2C[C@H](O)[C@@H](CO)O2)c(=O)n1 [Decitabine] (1000 nM) | 98.6% | 116% | 93.6% | 103% | 77.8% | 89.9% | 97.4% | 80.5% | 101% | 110% | 112% | 78.9% | 121% | 100% | 84.1% | 115% | 93.6% | 90.3% | 77.8% | 91.7% | 83.5% | 83.6% | 105% | 90.1% | 90.4% | 103% | 87.9% | 93.2% | 93% | 93.5% | 98.4% | 97.3% | 112% | 26.2% | 96.5% | 85.5% | 
CC[C@H](Nc1ncnc2[nH]cnc12)c1nc2cccc(F)c2c(=O)n1-c1ccccc1 [GS-1101] (1000 nM) | 98.7% | 105% | 96.9% | 80.2% | 88.6% | 94.1% | 96.9% | 97.4% | 93.7% |  | 93.8% | 112% | 84.2% |  | 107% | 88.1% | 101% | 84.6% | 82.8% | 89.9% | 97.7% | 97.3% | 93.2% | 92.3% | 84.9% | 110% | 94.9% | 87.7% | 100% | 78.9% | 85.5% | 85.3% | 89.6% | 86.9% | 90.3% | 79.6% | 106%
C[C@H]1C[C@@H]2[C@H]([C@@H](O)C[C@@]3(C)[C@H]2CC[C@]3(O)C(=O)CO)[C@@]2(C)C=CC(=O)C=C12 [Methylprednisolone] (1000 nM) | 98.6% | 131% | 101% | 107% | 108% | 104% | 103% | 108% | 109% | 127% | 105% | 108% | 142% |  | 98.5% | 109% |  | 151% | 100% | 80.5% | 108% | 108% | 117% | 100% | 109% | 105% | 97.9% | 83.2% | 114% | 96.7% | 159% | 105% | 101% | 119% | 106% | 94.5% | 105%
COc1cc2c(NC3CCN(C(C)C)CC3)nc(C3CCCCC3)nc2cc1OCCCN1CCCC1 [UNC0638] (1000 nM) | 91.6% | 81.2% | 100% | 93% | 78.5% | 94.4% | 91.6% |  | 89.1% | 92.1% | 92.6% | 104% | 81.7% | 92.5% | 95.8% | 143% | 95.7% | 92.4% | 91.6% | 92.8% | 88.9% | 71.4% | 106% | 92.1% | 93.3% | 82.1% | 89.9% | 95.6% | 103% | 76.7% | 92% | 91.3% | 90.6% | 78.8% | 83.6% | 84.6% | 
